According to PMC8550792, “Evolution of kinase polypharmacology across HSP90 drug discovery” (Cell Chemical Biology, 2021):

Tests used:
Experiment in all cases: biochemical
Format in all cases: biochemical
[1] = target: T1, 382 unique human kinases (Homo sapiens, UniProt Q12851); details: GCK/MAP4K2, 10 uM; for remaining activity at 10 µM: read-out: % Enzyme Activity (relative to DMSO controls)
T1 construct: purchased Reaction Biology (HotSpot contract assay)
T1 sequence (Q12851 1-820): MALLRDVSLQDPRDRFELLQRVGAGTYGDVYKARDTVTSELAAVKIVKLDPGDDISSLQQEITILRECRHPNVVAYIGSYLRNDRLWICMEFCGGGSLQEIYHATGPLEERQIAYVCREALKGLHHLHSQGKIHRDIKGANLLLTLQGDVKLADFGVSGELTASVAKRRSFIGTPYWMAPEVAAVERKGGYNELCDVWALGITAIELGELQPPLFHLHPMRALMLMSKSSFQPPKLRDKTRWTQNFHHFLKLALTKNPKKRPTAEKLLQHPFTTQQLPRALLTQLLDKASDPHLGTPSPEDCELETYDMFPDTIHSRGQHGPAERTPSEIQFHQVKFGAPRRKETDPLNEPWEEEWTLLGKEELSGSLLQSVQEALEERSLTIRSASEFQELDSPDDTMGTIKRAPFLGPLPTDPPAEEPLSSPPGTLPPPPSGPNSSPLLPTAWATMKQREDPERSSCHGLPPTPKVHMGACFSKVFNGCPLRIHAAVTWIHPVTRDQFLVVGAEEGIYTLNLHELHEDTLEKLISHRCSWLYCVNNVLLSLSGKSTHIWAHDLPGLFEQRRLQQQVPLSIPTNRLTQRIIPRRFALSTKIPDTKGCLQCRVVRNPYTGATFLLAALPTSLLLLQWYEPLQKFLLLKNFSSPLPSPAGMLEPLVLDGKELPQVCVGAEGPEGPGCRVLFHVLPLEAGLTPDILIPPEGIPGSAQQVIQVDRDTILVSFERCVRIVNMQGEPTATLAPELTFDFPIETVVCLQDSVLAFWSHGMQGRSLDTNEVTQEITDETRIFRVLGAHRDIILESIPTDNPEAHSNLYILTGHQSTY

[2] = target: T2, 382 unique human kinases (Homo sapiens, UniProt P10721, K642E); details: kinase c-Kit (K642E), compound 10 uM; for remaining activity at 10 µM: read-out: % Enzyme Activity (relative to DMSO controls)
T2 construct: purchased Reaction Biology (HotSpot contract assay)

[3] = target: T3, 382 unique human kinases (Homo sapiens, UniProt Q9H4A3); details: WNK1, 10 uM; for remaining activity at 10 µM: read-out: % Enzyme Activity (relative to DMSO controls)
T3 construct: purchased Reaction Biology (HotSpot contract assay)

[4] = target: T4, 382 unique human kinases (Homo sapiens, UniProt P48730); details: CK1d, 10 uM; for remaining activity at 10 µM: read-out: % Enzyme Activity (relative to DMSO controls)
T4 construct: purchased Reaction Biology (HotSpot contract assay)

[5] = target: T5, 382 unique human kinases (Homo sapiens, UniProt Q96L34); details: kinase MARK4, compound 10 uM; for remaining activity at 10 µM: read-out: % Enzyme Activity (relative to DMSO controls)
T5 construct: purchased Reaction Biology (HotSpot contract assay)
T5 sequence (Q96L34 1-752): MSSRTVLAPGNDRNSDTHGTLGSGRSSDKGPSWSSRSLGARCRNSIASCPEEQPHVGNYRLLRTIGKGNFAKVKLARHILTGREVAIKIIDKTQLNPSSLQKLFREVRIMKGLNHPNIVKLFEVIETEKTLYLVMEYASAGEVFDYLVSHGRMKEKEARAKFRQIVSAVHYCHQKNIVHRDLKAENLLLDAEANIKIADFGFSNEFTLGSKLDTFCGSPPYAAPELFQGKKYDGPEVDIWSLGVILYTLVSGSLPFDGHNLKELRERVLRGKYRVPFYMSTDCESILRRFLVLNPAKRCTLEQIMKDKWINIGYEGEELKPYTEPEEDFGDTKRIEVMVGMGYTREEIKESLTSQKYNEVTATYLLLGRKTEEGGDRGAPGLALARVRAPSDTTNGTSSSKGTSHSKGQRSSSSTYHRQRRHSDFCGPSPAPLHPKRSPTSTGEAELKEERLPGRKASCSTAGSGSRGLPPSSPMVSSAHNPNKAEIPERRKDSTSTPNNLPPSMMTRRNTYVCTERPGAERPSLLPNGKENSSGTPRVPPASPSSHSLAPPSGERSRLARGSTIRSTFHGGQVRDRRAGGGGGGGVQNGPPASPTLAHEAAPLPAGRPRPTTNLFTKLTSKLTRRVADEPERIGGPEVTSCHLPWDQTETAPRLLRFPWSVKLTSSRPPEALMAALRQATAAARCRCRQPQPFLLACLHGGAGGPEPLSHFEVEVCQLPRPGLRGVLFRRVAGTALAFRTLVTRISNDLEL

[6] = target: T6, 382 unique human kinases (Homo sapiens, UniProt P21802); details: FGFR2, 10 uM; for remaining activity at 10 µM: read-out: % Enzyme Activity (relative to DMSO controls)
T6 construct: purchased Reaction Biology (HotSpot contract assay)

[7] = target: T7, 382 unique human kinases (Homo sapiens, UniProt Q9Y4K4); details: kinase KHS/MAP4K5, compound 10 uM; for remaining activity at 10 µM: read-out: % Enzyme Activity (relative to DMSO controls)
T7 construct: purchased Reaction Biology (HotSpot contract assay)

[8] = target: T8, 382 unique human kinases (Homo sapiens, UniProt Q9P286); details: PAK5, compound at 10 uM, duplicate values; for remaining activity at 10 µM: read-out: % Enzyme Activity (relative to DMSO controls)
T8 construct: purchased Reaction Biology (HotSpot contract assay)

[9] = target: T9, 382 unique human kinases (Homo sapiens, UniProt P08581); details: kinase c-MET, compound 10 uM; for remaining activity at 10 µM: read-out: % Enzyme Activity (relative to DMSO controls)
T9 construct: purchased Reaction Biology (HotSpot contract assay)

[10] = target: T10, 382 unique human kinases (Homo sapiens, UniProt P09769); details: FGR, [ATP] 50 µM
T10 construct: purchased Reaction Biology (HotSpot contract assay)

[11] = target: T11, 382 unique human kinases (Homo sapiens, UniProt P36896); details: ALK4/ACVR1B, 10 uM; for remaining activity at 10 µM: read-out: % Enzyme Activity (relative to DMSO controls)
T11 construct: purchased Reaction Biology (HotSpot contract assay)
T11 sequence (P36896 24-505): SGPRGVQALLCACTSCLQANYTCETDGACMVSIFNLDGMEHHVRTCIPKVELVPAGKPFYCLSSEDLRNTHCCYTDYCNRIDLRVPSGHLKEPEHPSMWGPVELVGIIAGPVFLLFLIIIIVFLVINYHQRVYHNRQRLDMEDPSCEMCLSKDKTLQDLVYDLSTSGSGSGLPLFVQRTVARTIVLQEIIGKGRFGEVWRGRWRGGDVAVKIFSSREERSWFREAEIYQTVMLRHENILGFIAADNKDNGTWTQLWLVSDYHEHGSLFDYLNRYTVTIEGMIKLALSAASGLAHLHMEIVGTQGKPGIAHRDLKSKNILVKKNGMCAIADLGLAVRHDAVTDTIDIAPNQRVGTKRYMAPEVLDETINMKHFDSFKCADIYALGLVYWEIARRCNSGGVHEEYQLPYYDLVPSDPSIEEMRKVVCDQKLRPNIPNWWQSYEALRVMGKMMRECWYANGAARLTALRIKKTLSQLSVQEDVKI

[12] = target: T12, 382 unique human kinases (Homo sapiens, UniProt P08581, P991S); details: c-MET (P991S), 10 uM; for remaining activity at 10 µM: read-out: % Enzyme Activity (relative to DMSO controls)
T12 construct: purchased Reaction Biology (HotSpot contract assay)

[13] = compound 10 uM, read-out: % Enzyme Activity (relative to DMSO controls)

T6 sequence (P21802 22-821): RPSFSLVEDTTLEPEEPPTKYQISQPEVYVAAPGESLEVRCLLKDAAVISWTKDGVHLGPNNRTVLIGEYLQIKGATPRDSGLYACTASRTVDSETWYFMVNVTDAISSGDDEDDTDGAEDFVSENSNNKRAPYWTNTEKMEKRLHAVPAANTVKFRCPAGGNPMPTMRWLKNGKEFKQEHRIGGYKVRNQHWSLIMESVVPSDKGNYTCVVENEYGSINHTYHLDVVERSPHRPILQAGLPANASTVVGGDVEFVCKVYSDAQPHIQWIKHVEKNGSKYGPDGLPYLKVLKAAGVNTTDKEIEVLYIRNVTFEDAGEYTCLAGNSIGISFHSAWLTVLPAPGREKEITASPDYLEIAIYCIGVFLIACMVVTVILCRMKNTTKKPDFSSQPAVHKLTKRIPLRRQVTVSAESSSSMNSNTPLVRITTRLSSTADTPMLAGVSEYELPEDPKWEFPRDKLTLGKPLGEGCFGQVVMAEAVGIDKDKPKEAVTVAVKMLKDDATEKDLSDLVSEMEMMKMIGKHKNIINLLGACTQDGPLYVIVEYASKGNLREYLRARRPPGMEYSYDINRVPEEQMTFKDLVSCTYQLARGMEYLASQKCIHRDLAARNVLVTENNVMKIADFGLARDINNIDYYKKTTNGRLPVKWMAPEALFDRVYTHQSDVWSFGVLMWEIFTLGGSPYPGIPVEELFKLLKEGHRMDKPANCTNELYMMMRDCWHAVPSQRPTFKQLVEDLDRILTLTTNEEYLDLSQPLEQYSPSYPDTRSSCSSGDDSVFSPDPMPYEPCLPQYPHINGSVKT
T10 sequence (P09769 whole entry): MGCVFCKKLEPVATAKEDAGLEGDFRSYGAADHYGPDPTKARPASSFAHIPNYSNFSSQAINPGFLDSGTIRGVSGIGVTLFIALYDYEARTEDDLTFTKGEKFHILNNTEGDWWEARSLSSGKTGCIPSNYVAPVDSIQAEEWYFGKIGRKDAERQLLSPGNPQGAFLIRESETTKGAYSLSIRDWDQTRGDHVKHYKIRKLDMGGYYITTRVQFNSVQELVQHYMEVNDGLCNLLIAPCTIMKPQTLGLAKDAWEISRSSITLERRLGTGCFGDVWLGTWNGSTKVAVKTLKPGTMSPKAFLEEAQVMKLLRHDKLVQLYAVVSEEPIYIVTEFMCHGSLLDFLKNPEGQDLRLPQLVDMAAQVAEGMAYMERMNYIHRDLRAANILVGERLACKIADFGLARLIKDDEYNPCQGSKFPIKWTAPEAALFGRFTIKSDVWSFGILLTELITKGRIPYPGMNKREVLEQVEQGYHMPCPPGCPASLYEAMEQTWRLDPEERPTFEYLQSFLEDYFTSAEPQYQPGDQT
T2 sequence (P10721 26-976 K642E): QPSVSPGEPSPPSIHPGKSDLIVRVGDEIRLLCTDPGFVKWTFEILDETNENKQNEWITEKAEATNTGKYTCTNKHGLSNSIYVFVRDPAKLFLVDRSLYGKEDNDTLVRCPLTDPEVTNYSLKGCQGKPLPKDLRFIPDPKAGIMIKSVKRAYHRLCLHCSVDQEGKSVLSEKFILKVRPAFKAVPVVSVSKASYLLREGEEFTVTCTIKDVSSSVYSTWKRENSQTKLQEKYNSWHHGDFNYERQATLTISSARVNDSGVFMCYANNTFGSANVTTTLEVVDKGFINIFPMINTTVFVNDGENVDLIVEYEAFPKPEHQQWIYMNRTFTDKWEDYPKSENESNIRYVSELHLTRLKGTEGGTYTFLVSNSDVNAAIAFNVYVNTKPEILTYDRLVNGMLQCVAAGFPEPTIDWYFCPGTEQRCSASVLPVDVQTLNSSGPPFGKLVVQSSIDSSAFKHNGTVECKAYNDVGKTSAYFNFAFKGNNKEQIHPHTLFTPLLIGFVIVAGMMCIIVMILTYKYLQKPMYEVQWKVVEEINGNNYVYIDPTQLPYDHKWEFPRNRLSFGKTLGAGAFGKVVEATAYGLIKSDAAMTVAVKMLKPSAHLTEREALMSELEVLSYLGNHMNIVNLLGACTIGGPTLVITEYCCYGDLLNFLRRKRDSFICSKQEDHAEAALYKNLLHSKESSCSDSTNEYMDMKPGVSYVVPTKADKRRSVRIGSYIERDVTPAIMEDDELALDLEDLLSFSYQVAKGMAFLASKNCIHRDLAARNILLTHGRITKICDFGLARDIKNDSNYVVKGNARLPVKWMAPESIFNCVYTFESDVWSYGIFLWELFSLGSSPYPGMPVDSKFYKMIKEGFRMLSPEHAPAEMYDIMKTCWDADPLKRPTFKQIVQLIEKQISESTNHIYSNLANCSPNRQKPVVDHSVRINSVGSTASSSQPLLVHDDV
T3 sequence (Q9H4A3 whole entry): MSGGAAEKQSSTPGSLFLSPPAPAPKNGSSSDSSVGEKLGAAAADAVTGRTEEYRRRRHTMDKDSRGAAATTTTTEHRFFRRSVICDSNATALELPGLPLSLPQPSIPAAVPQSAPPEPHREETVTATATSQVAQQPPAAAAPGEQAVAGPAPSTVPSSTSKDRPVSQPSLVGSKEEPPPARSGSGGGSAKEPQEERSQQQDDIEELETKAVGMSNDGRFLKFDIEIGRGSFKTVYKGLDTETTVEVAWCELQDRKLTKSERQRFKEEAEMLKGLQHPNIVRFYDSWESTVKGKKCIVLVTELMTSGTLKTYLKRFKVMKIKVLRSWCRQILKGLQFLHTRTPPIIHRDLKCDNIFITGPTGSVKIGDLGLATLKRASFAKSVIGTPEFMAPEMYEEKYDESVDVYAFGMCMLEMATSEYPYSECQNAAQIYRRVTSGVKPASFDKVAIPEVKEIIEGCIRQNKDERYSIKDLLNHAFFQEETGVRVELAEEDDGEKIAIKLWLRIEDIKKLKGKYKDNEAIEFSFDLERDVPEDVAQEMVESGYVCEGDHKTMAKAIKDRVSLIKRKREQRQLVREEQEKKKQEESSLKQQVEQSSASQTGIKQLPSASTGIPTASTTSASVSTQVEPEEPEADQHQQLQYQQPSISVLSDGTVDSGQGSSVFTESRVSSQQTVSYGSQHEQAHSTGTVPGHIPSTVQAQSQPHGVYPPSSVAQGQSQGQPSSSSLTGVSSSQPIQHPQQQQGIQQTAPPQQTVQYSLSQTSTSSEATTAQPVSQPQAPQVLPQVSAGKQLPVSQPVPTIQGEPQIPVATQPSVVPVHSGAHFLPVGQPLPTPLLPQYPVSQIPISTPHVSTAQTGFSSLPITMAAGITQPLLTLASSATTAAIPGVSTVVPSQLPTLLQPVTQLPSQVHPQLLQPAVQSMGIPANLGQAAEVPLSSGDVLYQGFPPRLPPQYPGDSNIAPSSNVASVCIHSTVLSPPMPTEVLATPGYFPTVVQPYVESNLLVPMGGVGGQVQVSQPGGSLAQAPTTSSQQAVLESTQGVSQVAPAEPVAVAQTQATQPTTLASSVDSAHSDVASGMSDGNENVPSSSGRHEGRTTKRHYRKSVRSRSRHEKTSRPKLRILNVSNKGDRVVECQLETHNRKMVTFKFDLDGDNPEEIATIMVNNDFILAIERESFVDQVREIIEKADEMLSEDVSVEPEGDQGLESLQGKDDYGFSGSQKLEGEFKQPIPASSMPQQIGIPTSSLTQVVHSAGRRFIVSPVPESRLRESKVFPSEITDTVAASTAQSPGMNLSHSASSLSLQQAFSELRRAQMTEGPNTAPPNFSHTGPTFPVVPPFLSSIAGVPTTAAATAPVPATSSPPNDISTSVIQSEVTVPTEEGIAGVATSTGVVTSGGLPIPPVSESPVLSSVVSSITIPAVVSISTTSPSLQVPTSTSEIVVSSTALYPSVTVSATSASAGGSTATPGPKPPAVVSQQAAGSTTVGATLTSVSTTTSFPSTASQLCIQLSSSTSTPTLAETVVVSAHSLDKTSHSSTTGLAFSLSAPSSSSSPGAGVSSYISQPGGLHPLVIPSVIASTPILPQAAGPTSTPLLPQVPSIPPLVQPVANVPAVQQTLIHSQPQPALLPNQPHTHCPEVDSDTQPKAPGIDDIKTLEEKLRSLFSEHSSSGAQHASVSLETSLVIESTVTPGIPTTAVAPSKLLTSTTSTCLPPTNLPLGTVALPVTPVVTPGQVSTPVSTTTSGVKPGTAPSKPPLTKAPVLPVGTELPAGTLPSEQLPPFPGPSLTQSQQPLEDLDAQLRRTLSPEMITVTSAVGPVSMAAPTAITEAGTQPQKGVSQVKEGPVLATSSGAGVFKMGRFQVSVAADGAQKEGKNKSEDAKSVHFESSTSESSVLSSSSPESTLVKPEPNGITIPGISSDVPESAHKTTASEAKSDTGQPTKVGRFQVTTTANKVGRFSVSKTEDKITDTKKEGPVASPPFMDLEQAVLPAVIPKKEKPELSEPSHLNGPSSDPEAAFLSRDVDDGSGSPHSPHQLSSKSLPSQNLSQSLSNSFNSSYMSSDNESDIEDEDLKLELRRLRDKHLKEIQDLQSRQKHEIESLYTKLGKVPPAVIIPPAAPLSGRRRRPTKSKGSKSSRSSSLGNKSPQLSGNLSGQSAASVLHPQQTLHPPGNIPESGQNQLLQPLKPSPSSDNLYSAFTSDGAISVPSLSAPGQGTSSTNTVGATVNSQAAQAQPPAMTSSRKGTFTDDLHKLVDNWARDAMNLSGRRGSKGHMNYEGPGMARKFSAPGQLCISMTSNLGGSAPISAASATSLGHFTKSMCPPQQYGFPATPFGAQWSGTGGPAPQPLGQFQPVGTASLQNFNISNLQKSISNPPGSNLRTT
T4 sequence (P48730 whole entry): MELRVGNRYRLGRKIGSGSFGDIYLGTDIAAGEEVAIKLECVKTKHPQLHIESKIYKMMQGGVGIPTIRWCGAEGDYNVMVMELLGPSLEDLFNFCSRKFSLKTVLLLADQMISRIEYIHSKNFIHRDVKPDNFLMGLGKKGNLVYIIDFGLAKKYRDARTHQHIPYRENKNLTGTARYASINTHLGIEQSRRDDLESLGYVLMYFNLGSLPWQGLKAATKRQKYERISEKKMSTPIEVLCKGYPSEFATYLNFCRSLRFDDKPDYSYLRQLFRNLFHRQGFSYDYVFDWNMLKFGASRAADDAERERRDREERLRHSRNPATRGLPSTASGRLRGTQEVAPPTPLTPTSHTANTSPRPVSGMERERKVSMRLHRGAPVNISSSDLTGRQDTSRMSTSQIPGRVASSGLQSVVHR

| SMILES | remaining activity at 10 µM [1] [%] | remaining activity at 10 µM [2] [%] | remaining activity at 10 µM [3] [%] | remaining activity at 10 µM [4] [%] | remaining activity at 10 µM [5] [%] | remaining activity at 10 µM [6] [%] | remaining activity at 10 µM [7] [%] | remaining activity at 10 µM [8] [%] | remaining activity at 10 µM [9] [%] | remaining activity at 10 µM [10, 13] [%] | remaining activity at 10 µM [11] [%] | remaining activity at 10 µM [12] [%] | also measured |
| --- | --- | --- | --- | --- | --- | --- | --- | --- | --- | --- | --- | --- | --- |
| CC(C)c1cc(-c2n[nH]c(=O)n2-c2ccc3c(ccn3C)c2)c(O)cc1O [Ganetespib (STA9090)] | 76 | 85.5 | 94.2 | 81.2 | 91 | 68.3 | 80.6 | 119 | 82.2 | – | – | – | – |
| CC(C)c1cc(-c2n[nH]c(=O)n2-c2ccc3c(ccn3C)c2)c(O)cc1O [Ganetespib] | – | – | – | – | – | – | – | – | – | 14.4 | 111 | 109 | remaining activity at 1 µM ([10]; compound 1 uM, read-out: % Enzyme Activity (relative to DMSO controls)): 47.5% |
| CCNC(=O)c1noc(-c2cc(C(C)C)c(O)cc2O)c1-c1ccc(CN2CCOCC2)cc1 [Luminespib (AUY-922)] | 97.2 | 82.3 | 70.4 | 83.5 | 97.1 | 99.8 | 93.5 | 108 | 105 | – | – | – | % Enzyme Activity (relative to DMSO controls) [1]: 94.14%; % Enzyme Activity (relative to DMSO controls) [2]: 81.47%; % Enzyme Activity (relative to DMSO controls) [3]: 68.64%; % Enzyme Activity (relative to DMSO controls) [4]: 81.12%; % Enzyme Activity (relative to DMSO controls) [5]: 95.99%; % Enzyme Activity (relative to DMSO controls) [6]: 98.90%; % Enzyme Activity (relative to DMSO controls) [7]: 91.62%; % Enzyme Activity (relative to DMSO controls) [8]: 107.77%; % Enzyme Activity (relative to DMSO controls) [9]: 99.56% |
| CCNC(=O)c1noc(-c2cc(C(C)C)c(O)cc2O)c1-c1ccc(CN2CCOCC2)cc1 [Luminespib] | – | – | – | – | – | – | – | – | – | 34.1 | 95 | 100 | % Enzyme Activity (relative to DMSO controls) ([10]; compound 10 uM): 33.14%; % Enzyme Activity (relative to DMSO controls) [11]: 94.12%; % Enzyme Activity (relative to DMSO controls) [12]: 98.52% |
